Laboratory results from ChEMBL document CHEMBL5620353, “Novel antifungal triazoles with alkynyl-methoxyl side chains: Design, synthesis, and biological activity evaluation” (Eur J Med Chem, 2023).
≈ marks a conversion by molar mass, not a printed value.

Tests used:
Assay type in all cases: functional
Candida parapsilosis = assay: Antifungal activity against Candida parapsilosis 22019 assessed as inhibition of fungal growth incubated for 48 hrs by microbroth dilution method; settings: Lodderomyces parapsilosis
Candida albicans [1] = assay: Antifungal activity against Candida albicans SC5314 assessed as inhibition of fungal growth incubated for 48 hrs by microbroth dilution method
Nakaseomyces glabratus [2] = assay: Antifungal activity against Candida glabrata 537 assessed as inhibition of fungal growth incubated for 48 hrs by microbroth dilution method
Nakaseomyces glabratus [3] = assay: Potency index, ratio of fluconazole MIC to test compound MIC for antifungal activity against Candida glabrata 537 assessed as inhibition of fungal growth incubated for 48 hrs by microbroth dilution method
Pichia kudriavzevii = assay: Antifungal activity against Candida krusei 4996 assessed as inhibition of fungal growth incubated for 48 hrs by microbroth dilution method
Aspergillus fumigatus = assay: Antifungal activity against Aspergillus fumigatus 7544 assessed as inhibition of fungal growth incubated for 72 hrs by microbroth dilution method
Cryptococcus neoformans = assay: Antifungal activity against Cryptococcus neoformans 32,609 assessed as inhibition of fungal growth incubated for 72 hrs by microbroth dilution method
Candida tropicalis = assay: Antifungal activity against Candida tropicalis 8915 assessed as inhibition of fungal growth incubated for 48 hrs by microbroth dilution method
Candida albicans [4] = assay: Antifungal activity against Candida albicans 10231 assessed as inhibition of fungal growth incubated for 48 hrs by microbroth dilution method
[Candida] auris [5] = Antifungal activity against fluconazole-resistant Candida auris 891 assessed as inhibition of fungal growth incubated for 48 hrs by microbroth dilution method; settings: Candidozyma auris
Candida albicans [6] = assay: Antifungal activity against fluconazole-resistant Candida albicans 904 assessed as inhibition of fungal growth incubated for 48 hrs by microbroth dilution method
[Candida] auris [7] = Antifungal activity against fluconazole-resistant Candida auris 919 assessed as inhibition of fungal growth incubated for 48 hrs by microbroth dilution method; settings: Candidozyma auris
Candida albicans [8] = assay: Antifungal activity against fluconazole-resistant Candida albicans 901 assessed as inhibition of fungal growth incubated for 48 hrs by microbroth dilution method
[Candida] auris [9] = Antifungal activity against fluconazole-resistant Candida auris 918 assessed as inhibition of fungal growth incubated for 48 hrs by microbroth dilution method; settings: Candidozyma auris

MIC (Candida parapsilosis) [µg/mL]	MIC (Candida albicans [1]) [µg/mL]	MIC (Nakaseomyces glabratus [2]) [µg/mL]	MIC (Pichia kudriavzevii) [µg/mL]	MIC (Aspergillus fumigatus) [µg/mL]	MIC (Cryptococcus neoformans) [µg/mL]	MIC (Candida tropicalis) [µg/mL]	MIC (Candida albicans [4]) [µg/mL]	SMILES	Ratio (Nakaseomyces glabratus [3])	MIC ([Candida] auris [5]) [µg/mL]	MIC (Candida albicans [6]) [µg/mL]	MIC ([Candida] auris [7]) [µg/mL]	MIC (Candida albicans [8]) [µg/mL]	MIC ([Candida] auris [9]) [µg/mL]
2 (≈ 4.98 µM)	≤ 0.125	≤ 0.125	8 (≈ 19.9 µM)	4 (≈ 9.97 µM)	0.5 (≈ 1.25 µM)	64 (≈ 159 µM)	8 (≈ 19.9 µM)	C[C@@H](OCC#Cc1ccccc1F)[C@](O)(Cn1cncn1)c1ccc(F)cc1F	>=8					
0.5 (≈ 1.3 µM)	≤ 0.125	≤ 0.125	8 (≈ 20.9 µM)	4 (≈ 10.4 µM)	0.5 (≈ 1.3 µM)	32 (≈ 83.5 µM)	8 (≈ 20.9 µM)	C[C@@H](OCC#Cc1ccccc1)[C@](O)(Cn1cncn1)c1ccc(F)cc1F	>=8					
8 (≈ 17.7 µM)	≤ 0.125	1 (≈ 2.21 µM)	64 (≈ 142 µM)	4 (≈ 8.84 µM)	4 (≈ 8.84 µM)	32 (≈ 70.8 µM)	32 (≈ 70.8 µM)	C[C@@H](OCC#Cc1cccc(Cl)c1Cl)[C@](O)(Cn1cncn1)c1ccc(F)cc1F						
0.5 (≈ 1.26 µM)	0.5 (≈ 1.26 µM)	0.25 (≈ 0.629 µM)	32 (≈ 80.5 µM)	1 (≈ 2.52 µM)	4 (≈ 10.1 µM)	64 (≈ 161 µM)	8 (≈ 20.1 µM)	Cc1cccc(C#CCO[C@H](C)[C@](O)(Cn2cncn2)c2ccc(F)cc2F)c1						
1 (≈ 2.39 µM)	0.25 (≈ 0.598 µM)	0.25 (≈ 0.598 µM)	8 (≈ 19.1 µM)	4 (≈ 9.57 µM)	2 (≈ 4.79 µM)	64 (≈ 153 µM)	16 (≈ 38.3 µM)	C[C@@H](OCC#Cc1ccccc1Cl)[C@](O)(Cn1cncn1)c1ccc(F)cc1F						
1 (≈ 2.38 µM)	≤ 0.125	≤ 0.125	8 (≈ 19.1 µM)	8 (≈ 19.1 µM)	1 (≈ 2.38 µM)	32 (≈ 76.3 µM)	16 (≈ 38.2 µM)	C[C@@H](OCC#Cc1cccc(F)c1F)[C@](O)(Cn1cncn1)c1ccc(F)cc1F	>=8					
4 (≈ 10.1 µM)	≤ 0.125	≤ 0.125	32 (≈ 80.5 µM)	4 (≈ 10.1 µM)	2 (≈ 5.03 µM)	16 (≈ 40.3 µM)	16 (≈ 40.3 µM)	Cc1ccc(C#CCO[C@H](C)[C@](O)(Cn2cncn2)c2ccc(F)cc2F)cc1	>=8					
4 (≈ 10.1 µM)	0.25 (≈ 0.629 µM)	0.25 (≈ 0.629 µM)	16 (≈ 40.3 µM)	4 (≈ 10.1 µM)	1 (≈ 2.52 µM)	32 (≈ 80.5 µM)	8 (≈ 20.1 µM)	Cc1ccccc1C#CCO[C@H](C)[C@](O)(Cn1cncn1)c1ccc(F)cc1F						

Continued, compound first:

SMILES	MIC (Candida parapsilosis) [µg/mL]	MIC (Candida albicans [1]) [µg/mL]	MIC (Nakaseomyces glabratus [2]) [µg/mL]	MIC (Pichia kudriavzevii) [µg/mL]	MIC (Aspergillus fumigatus) [µg/mL]	MIC (Cryptococcus neoformans) [µg/mL]	MIC (Candida tropicalis) [µg/mL]	MIC (Candida albicans [4]) [µg/mL]	Ratio (Nakaseomyces glabratus [3])	MIC ([Candida] auris [5]) [µg/mL]	MIC (Candida albicans [6]) [µg/mL]	MIC ([Candida] auris [7]) [µg/mL]	MIC (Candida albicans [8]) [µg/mL]	MIC ([Candida] auris [9]) [µg/mL]
C[C@@H](OCC#Cc1ccccn1)[C@](O)(Cn1cncn1)c1ccc(F)cc1F	0.5 (≈ 1.3 µM)	≤ 0.125	≤ 0.125	16 (≈ 41.6 µM)	8 (≈ 20.8 µM)	0.5 (≈ 1.3 µM)	> 64	32 (≈ 83.2 µM)	>=8					
C[C@@H](OCC#Cc1c(Cl)cc(Cl)cc1Cl)[C@](O)(Cn1cncn1)c1ccc(F)cc1F	2 (≈ 4.11 µM)	1 (≈ 2.05 µM)	≤ 0.125	16 (≈ 32.9 µM)	2 (≈ 4.11 µM)	0.5 (≈ 1.03 µM)	64 (≈ 131 µM)	> 64	>=8					
C[C@@H](OCC#Cc1c(F)cc(F)cc1F)[C@](O)(Cn1cncn1)c1ccc(F)cc1F	2 (≈ 4.57 µM)	≤ 0.125	≤ 0.125	8 (≈ 18.3 µM)	4 (≈ 9.15 µM)	0.5 (≈ 1.14 µM)	64 (≈ 146 µM)	> 64	>=8					
C[C@@H](OCC#Cc1ccc(F)cc1)[C@](O)(Cn1cncn1)c1ccc(F)cc1F	1 (≈ 2.49 µM)	≤ 0.125	≤ 0.125	8 (≈ 19.9 µM)	1 (≈ 2.49 µM)	0.5 (≈ 1.25 µM)	64 (≈ 159 µM)	8 (≈ 19.9 µM)	>=8	16 (≈ 39.9 µM)	32 (≈ 79.7 µM)	16 (≈ 39.9 µM)	64 (≈ 159 µM)	16 (≈ 39.9 µM)
C[C@@H](OCC#Cc1ccc(C(F)(F)F)cc1)[C@](O)(Cn1cncn1)c1ccc(F)cc1F	16 (≈ 35.4 µM)	4 (≈ 8.86 µM)	1 (≈ 2.22 µM)	64 (≈ 142 µM)	16 (≈ 35.4 µM)	8 (≈ 17.7 µM)	64 (≈ 142 µM)	32 (≈ 70.9 µM)						
C[C@@H](OCC#Cc1ccc(OC(F)(F)F)cc1)[C@](O)(Cn1cncn1)c1ccc(F)cc1F	16 (≈ 34.2 µM)	4 (≈ 8.56 µM)	2 (≈ 4.28 µM)	64 (≈ 137 µM)	8 (≈ 17.1 µM)	4 (≈ 8.56 µM)	32 (≈ 68.5 µM)	32 (≈ 68.5 µM)						
C[C@@H](OCC#Cc1cc(F)ccc1F)[C@](O)(Cn1cncn1)c1ccc(F)cc1F	2 (≈ 4.77 µM)	≤ 0.125	≤ 0.125	8 (≈ 19.1 µM)	2 (≈ 4.77 µM)	1 (≈ 2.38 µM)	8 (≈ 19.1 µM)	8 (≈ 19.1 µM)	>=8					
C[C@@H](OCC#Cc1cccnc1)[C@](O)(Cn1cncn1)c1ccc(F)cc1F	≤ 0.125	≤ 0.125	≤ 0.125	4 (≈ 10.4 µM)	4 (≈ 10.4 µM)	≤ 0.125	64 (≈ 166 µM)	32 (≈ 83.2 µM)	>=8					
C[C@@H](OCC#Cc1cccc(F)c1)[C@](O)(Cn1cncn1)c1ccc(F)cc1F	1 (≈ 2.49 µM)	≤ 0.125	≤ 0.125	16 (≈ 39.9 µM)	1 (≈ 2.49 µM)	1 (≈ 2.49 µM)	32 (≈ 79.7 µM)	16 (≈ 39.9 µM)	>=8					
C[C@@H](OCC#Cc1ccc(Cl)cc1Cl)[C@](O)(Cn1cncn1)c1ccc(F)cc1F	4 (≈ 8.84 µM)	≤ 0.125	0.25 (≈ 0.553 µM)	32 (≈ 70.8 µM)	4 (≈ 8.84 µM)	2 (≈ 4.42 µM)	32 (≈ 70.8 µM)	32 (≈ 70.8 µM)		32 (≈ 70.8 µM)	32 (≈ 70.8 µM)	8 (≈ 17.7 µM)	64 (≈ 142 µM)	16 (≈ 35.4 µM)
C[C@@H](OCC#Cc1c(Cl)cccc1Cl)[C@](O)(Cn1cncn1)c1ccc(F)cc1F	4 (≈ 8.84 µM)	0.25 (≈ 0.553 µM)	0.25 (≈ 0.553 µM)	16 (≈ 35.4 µM)	4 (≈ 8.84 µM)	≤ 0.125	> 64	> 64						
C[C@@H](OCC#Cc1cc(Cl)ccc1Cl)[C@](O)(Cn1cncn1)c1ccc(F)cc1F	4 (≈ 8.84 µM)	0.25 (≈ 0.553 µM)	≤ 0.125	32 (≈ 70.8 µM)	16 (≈ 35.4 µM)	2 (≈ 4.42 µM)	> 64	> 64	>=8					
COc1ccc(C#CCO[C@H](C)[C@](O)(Cn2cncn2)c2ccc(F)cc2F)cc1	4 (≈ 9.68 µM)	≤ 0.125	0.25 (≈ 0.605 µM)	32 (≈ 77.4 µM)	4 (≈ 9.68 µM)	2 (≈ 4.84 µM)	16 (≈ 38.7 µM)	16 (≈ 38.7 µM)						
C[C@@H](OCC#Cc1ccc(Cl)cc1)[C@](O)(Cn1cncn1)c1ccc(F)cc1F	0.5 (≈ 1.2 µM)	≤ 0.125	≤ 0.125	16 (≈ 38.3 µM)	4 (≈ 9.57 µM)	1 (≈ 2.39 µM)	≤ 0.125	16 (≈ 38.3 µM)	>=8	4 (≈ 9.57 µM)	32 (≈ 76.6 µM)	8 (≈ 19.1 µM)	32 (≈ 76.6 µM)	16 (≈ 38.3 µM)
C[C@@H](OCC#Cc1cccc(Cl)c1)[C@](O)(Cn1cncn1)c1ccc(F)cc1F	2 (≈ 4.79 µM)	0.5 (≈ 1.2 µM)	0.5 (≈ 1.2 µM)	32 (≈ 76.6 µM)	2 (≈ 4.79 µM)	2 (≈ 4.79 µM)	32 (≈ 76.6 µM)	32 (≈ 76.6 µM)						
C[C@@H](OCC#Cc1c(F)cccc1F)[C@](O)(Cn1cncn1)c1ccc(F)cc1F	0.5 (≈ 1.19 µM)	≤ 0.125	0.25 (≈ 0.596 µM)	4 (≈ 9.54 µM)	1 (≈ 2.38 µM)	≤ 0.125	64 (≈ 153 µM)	16 (≈ 38.2 µM)						
